{"source": "ChEMBL document CHEMBL1151444", "about": "“Failure of current cefepime breakpoints to predict clinical outcomes of bacteremia caused by gram-negative organisms” (2007)", "assay_type_in_all_cases": "functional", "key": {"[1]": {"system": "Enterobacter sp.", "experiment": "Antibacterial activity in Enterobacter sp. infected patient assessed as mortality after 28 days"}, "[2]": {"system": "Pseudomonas aeruginosa", "experiment": "Antibacterial activity in Pseudomonas aeruginosa infected patient assessed as mortality after 28 days"}, "[3]": {"system": "Serratia sp.", "experiment": "Antibacterial activity in Serratia sp. infected patient assessed as mortality after 28 days"}, "[4]": {"system": "Proteus sp.", "experiment": "Antibacterial activity in Proteus sp. infected patient assessed as mortality after 28 days"}, "[5]": {"system": "Klebsiella sp.", "experiment": "Antibacterial activity in Klebsiella sp. infected patient assessed as mortality after 28 days"}, "[6]": {"system": "Escherichia coli", "experiment": "Antibacterial activity in Escherichia coli infected patient assessed as mortality after 28 days"}}}
{"compound": "CO/N=C(\\C(=O)N[C@@H]1C(=O)N2C(C(=O)[O-])=C(C[N+]3(C)CCCC3)CS[C@H]12)c1csc(N)n1", "note": "[CEFEPIME]", "values": [{"measurement": "Activity", "setting": "[1]", "value": 21.7, "unit": "%"}, {"measurement": "Activity", "setting": "[2]", "value": 39.1, "unit": "%"}, {"measurement": "Activity", "setting": "[3]", "value": 23.8, "unit": "%"}, {"measurement": "Activity", "setting": "[4]", "value": 25, "unit": "%"}, {"measurement": "Activity", "setting": "[5]", "value": 30.4, "unit": "%"}, {"measurement": "Activity", "setting": "[6]", "value": 21.2, "unit": "%"}]}
